“Also recorded” adds a separate entry of the source.

Data set [1] can be described thus: DNFB-induced allergic contact allergy in the mouse (DNFB-DTH). The class given is in vivo. Conditions: for DR (Hypercalcemic threshold dose/ immunosuppressive threshold dose): therapeutic range, mouse, once daily intragastrically around sensitization, calcium level in urine as side-effect parameter; for activity in vivo (prevention of the formation of edemas): contact allergy in the mouse. From the text: 58, 179-204 (1999)]. The model of the dinitrofluorobenzene (DNFB)-induced allergic contact allergy in the mouse represents an inflammatory skin disease with the background of an inflammatory reaction of the delayed type (delayed type hypersensitivity; DTH). The inflammatory phase of the contact allergy is triggered by a multi-phase reaction. A repeated contact with the topically effective contact allergen DNFB (25 il of a 0.5% (w/v) DNFB solution in acetone/olive oil 4:1 [v/v] on the shaved abdomen with a surface area of about 10 cm^2 on test days 0. and 1.) triggers an immune reaction, which results in the sensitization of the animals against the specific agent, without “visible” symptoms occurring. Only after a sensitization time of 4-5 days, in which populations of DNFB-specific lymphocytes of “memory” type have formed in the draining lymph nodes, can a renewed contact (20 il of a 0.5% (w/v) DNFB solution in acetone/olive oil 4:1 [v/v]) trigger an inflammatory skin reaction with the contact allergen at any skin area (here: on both ears, treated surface area/ear about 2 cm^2). This second phase, which is also referred to as the trigger or “challenge,” ends in an eczematous lesion on the second contact site. The evaluation of the extent of the inflammatory reaction or the success of treatment is performed routinely 24 hours after the triggering, since at this time, the parameters that are to be analyzed (ear thickness and cell infiltration as a yardstick for the edema) have reached a plateau. The model of the DNFB-induced contact allergy allows the examination of the action of systemically or topically administered test substances with immunosuppressive/immunomodulating or inflammation-inhibiting properties. In the study on immunomodulating properties of calcitriol derivatives, the latter are administered once daily intragastrically in physiological common salt solution (0.9% NaCl) with an admixture of 0.085% Myrj 53) around the time of sensitization (beginning two days before and one day before sensitization, on the day of sensitization and on day 1 and 2 after sensitization). As side-effect parameters that are typical of vitamin D, the determination of the calcium level in the urine of the treated animals is used at the latest 24 hours after the last treatment with the substance. The calcium content is determined by flame-photometry. The significance of differences occurring between substance groups and controls as well as between test substance and reference substance are supported with suitable statistic processes. The therapeutic range of the test substances and calcitriol as a reference substance is indicated as a dose ratio DR (DR=factor of hypercalcemic threshold dose/immunosuppressive threshold dose).

The next data set relates to HL 60 cells. As to the kind of experiment: differentiation induction of HL 60 cells to macrophages (NBT reduction). It is filed as cell-based, human. Conditions: relative to calcitriol; 96 hours incubation. How it is done:
The differentiation-stimulating action of calcitriol analogs is also detected quantitatively.
It is known in the literature [D. J. Mangelsdorf et al., J. Cell. Biol. 98, 391 (1984)] that the treatment of human leukemia cells (promyelocyte cell line HL 60) in vitro with calcitriol induces the differentiation of cells to macrophages.
HL 60 cells are cultivated in tissue culture medium (RPMI 10% fetal calf serum) at 37° C. in an atmosphere of 5% CO2 in air.
For substance testing, the cells are centrifuged off, and 2.0×10^5 cells/ml in phenol red-free tissue culture medium are taken up. The test substances are dissolved in ethanol and diluted to the desired concentration with tissue culture medium without phenol red. The dilution stages are mixed with the cell suspension at a ratio of 1:10, and 100 il each of this cell suspension that is mixed with substance is pipetted into an indentation of a 96-hole plate. For control, a cell suspension is mixed analogously with the solvent.
After incubation for 96 hours at 37° C. in 5% CO2 in air, 100 il of an NBT-TPA solution (nitro blue tetrazolium (NBT), final concentration in the batch of 1 mg/ml, tetradecanoyl phorbolmyristate-13-acetate (TPA), final concentration in the batch of 2×10^−7 mol/l) is pipetted into each indentation of the 96-hole plate in the cell suspension.
By incubation for 2 hours at 37° C. and 5% CO2 in air, NBT is reduced to insoluble formazan because of the intracellular oxygen radical release, stimulated by TPA, in the cells that are differentiated to macrophages.
To complete the reaction, the indentations of the 96-hole plate are suctioned off, and the cells are affixed to the bottom of the plate by adding methanol and dried after affixing. To dissolve the intracellular formazan crystals that are formed, 100 il of potassium hydroxide (2 mol/l) and 100 il of dimethyl sulfoxide are pipetted into each indentation and ultrasonically treated for 1 minute. The concentration of formazan is measured by spectrophotometry at 650 nm.
As a yardstick for the differentiation induction of HL 60 cells to macrophages, the concentration of formed formazan applies.

Data set [2] is described as follows: acute hypercalcemic action in rats (serum calcium after one-time subcutaneous administration). It is filed as in vivo, rat. The following applies: relative to calcitriol, male rats. How it is done:
To determine the acute hypercalcemic action of various calcitriol derivatives, the test that is described below is carried out:
The action of control (solution base), reference substance (1,25-dihydroxy vitamin D3=calcitriol) and test substance is tested in each case after one-time subcutaneous administration in groups of 10 healthy male rats (140-170 g). During the testing time, the rats are kept in special cages to determine the excretion of water and mineral substances. Urine is collected in 2 fractions (0-16 hours and 16-22 hours). An oral dose of calcium (0.1 mmol of calcium in 6.5% alpha-hydroxypropyl cellulose, 5 ml/animal) replaces at 1600 hours the calcium intake that is lacking by food deprivation. At the end of the test, the animals are sacrificed by decapitation and exsanguinated to determine the serum-calcium values. For the primary screening test in vivo, an individual standard dose (200 ig/kg) is tested. For selected substances, the result is supported by establishing a dose-effect relation.
A hypercalcemic action is shown in serum-calcium level values that are higher than in the control.
The significance of differences occurring between substance groups and controls as well as between test substance and reference substance are supported with suitable statistical processes.

In a further data set the target is T1, vitamin D receptor (Sus scrofa, UniProt A3RGC1).
T1 sequence (A3RGC1 1-427): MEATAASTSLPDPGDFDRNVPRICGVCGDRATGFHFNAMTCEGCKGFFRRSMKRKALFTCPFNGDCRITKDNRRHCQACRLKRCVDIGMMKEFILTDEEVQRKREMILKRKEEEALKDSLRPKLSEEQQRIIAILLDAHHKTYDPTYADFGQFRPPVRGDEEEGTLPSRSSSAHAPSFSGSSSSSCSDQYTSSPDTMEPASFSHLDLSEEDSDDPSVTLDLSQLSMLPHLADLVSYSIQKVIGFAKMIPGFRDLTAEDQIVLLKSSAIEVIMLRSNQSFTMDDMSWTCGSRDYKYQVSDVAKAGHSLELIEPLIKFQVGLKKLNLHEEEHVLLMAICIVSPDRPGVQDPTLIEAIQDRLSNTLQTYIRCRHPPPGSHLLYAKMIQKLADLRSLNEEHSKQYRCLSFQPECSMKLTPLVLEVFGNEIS
As to the kind of experiment: calcitriol-receptor test (competition with 3H-calcitriol, protein extract from intestines of juvenile pigs). Conditions: for KF (competition factor: concentration of test substance / reference substance at 50% competition): relative to unlabeled calcitriol, 3H-calcitriol 5x10^-10 mol/l, 2 hours at 4° C; for activity in vitro: result in words, summary of the in vitro tests of the table (calcitriol-receptor test and HL 60).

Protocol for vitamin D receptor: It is carried out using a protein extract from the intestines of juvenile pigs. […] To this end, 250 il of a charcoal-dextran suspension is fed to each test tube and incubated at 4° C. for 20 minutes. Then, the samples are centrifuged at 10,000 g for 5 minutes at 4° C. The supernatant is decanted and measured in a á-counter after 1 hour of equilibration in Picofluor 15™.
The competition curves that are obtained at various concentrations of test substance as well as of reference substance (unlabeled calcitriol) at constant concentration of the reference substance (^3H-calcitriol) are placed in relation to one another, and a competition factor (KF) is determined.
It is defined as a quotient of the concentrations of the respective test substance and the reference substance, which are necessary for 50% competition:
KF=Concentration of test substance at 50% competition
Concentration of reference substance at 50% competition

Regarding `C=C1C(=CC=C2CCCC3(C)C2CCC3C(C)C=CC(O)C2(c3ncc(CCCC)o3)CC2)CC(O)CC1O` [(5Z,7E,22E)-(1S,3R,24R)-25-(5-butyloxazole-2-yl)-26,27-cyclo-9,10-secocholesta-5,7,10(19),22-tetraene-1,3,24-triol, reference compound], the “DR (Hypercalcemic threshold dose/ immunosuppressive threshold dose)” value in data set [1] was 1,000.

Turning to `C=C1/C(=C\C=C2/CCC[C@]3(C)[C@@H]([C@H](C)/C=C/[C@@H](O)C4(c5ncc(CCC)o5)CC4)CC[C@@H]23)C[C@@H](O)C[C@@H]1O` [A, (5Z,7E,22E)-(1S,3R,24R)-25-(5-Propyloxazole-2-yl)-26,27-cyclo-9,10-secocholesta-5,7,10(19),22-tetraene-1,3,24-triol], the “DR (HL 60) (dose ratio test substance/reference substance for comparable semi-maximum actions)” value in the data set with HL 60 cells worked out at 1.9. Further, in data set [2], the “DR (Ca) (dose ratio for hypercalcemia, test substance dose/reference substance dose for comparable actions)” value was 300. On vitamin D receptor, the “KF (competition factor: concentration of test substance / reference substance at 50% competition)” value came to 2.

`C=C1/C(=C\C=C2/CCC[C@]3(C)[C@@H]([C@H](C)/C=C/[C@@H](O)C4(c5ncc(C)o5)CC4)CC[C@@H]23)C[C@@H](O)C[C@@H]1O` [B, (5Z,7E,22E)-(1S,3R,24R)-25-(5-Methyloxazole-2-yl)-26,27-cyclo-9,10-secocholesta-5,7,10(19),22-tetraene-1,3,24-triol]: in the data set on HL 60 cells, the “DR (HL 60) (dose ratio test substance/reference substance for comparable semi-maximum actions)” value is recorded as 3.4. The “DR (Ca) (dose ratio for hypercalcemia, test substance dose/reference substance dose for comparable actions)” value in data set [2] was more than 300. At vitamin D receptor, the “KF (competition factor: concentration of test substance / reference substance at 50% competition)” value was determined as 2.

In the case of `C=C1C(=CC=C2CCCC3(C)C2CCC3C(C)C=CC(O)C2(c3ncc(CC)o3)CC2)CC(O)CC1O` [C, (5Z,7E,22E)-(1S,3R,24R)-25-(5-Ethyloxazole-2-yl)-26,27-cyclo-9,10-secocholesta-5,7,10(19),22-tetraene-1,3,24-triol], the “DR (HL 60) (dose ratio test substance/reference substance for comparable semi-maximum actions)” value with HL 60 cells was found to be 1.3. For the same compound, the “DR (Ca) (dose ratio for hypercalcemia, test substance dose/reference substance dose for comparable actions)” value in data set [2] was more than 300. Also, the “KF (competition factor: concentration of test substance / reference substance at 50% competition)” value at vitamin D receptor was 3.

As for `C=C1/C(=C\C=C2/CCC[C@]3(C)[C@@H]([C@H](C)CCCC(C)(C)O)CC[C@@H]23)C[C@@H](O)C[C@@H]1O` [Calcitriol, 1,25-dihydroxy vitamin D3], in the data set on HL 60 cells, the “DR (HL 60) (dose ratio test substance/reference substance for comparable semi-maximum actions)” value is 1. The “DR (Ca) (dose ratio for hypercalcemia, test substance dose/reference substance dose for comparable actions)” value in data set [2] is on record as 1. For the same compound, the “DR (Hypercalcemic threshold dose/ immunosuppressive threshold dose)” value in data set [1] was 1.

In the case of `C=C1/C(=C\C=C2/CCC[C@]3(C)[C@@H]([C@H](C)CC[C@H](OC(C)=O)C4(c5ncc(CCCC)o5)CC4)CC[C@@H]23)C[C@@H](O)C[C@@H]1O` [Compound 3a, (5Z,7E)-(1S,3R,24S)-24-Acetoxy-25-(5-butyloxazole-2-yl)-26,27-cyclo-9,10-secocholesta-5,7,10(19)-triene-1,3-diol], the “DR (HL 60) (dose ratio test substance/reference substance for comparable semi-maximum actions)” value in the data set on HL 60 cells is listed as more than 170. In data set [2], the “DR (Ca) (dose ratio for hypercalcemia, test substance dose/reference substance dose for comparable actions)” value is more than 1000. Also, the “activity in vivo (prevention of the formation of edemas)” value in data set [1] (result in words) is “therapeutically active in vivo”. Moreover, on vitamin D receptor, the “KF (competition factor: concentration of test substance / reference substance at 50% competition)” value is more than 100 and the activity in vitro result is “inactivity; also recorded: deficient activity”.

As for `C=C1/C(=C\C=C2/CCC[C@]3(C)[C@@H]([C@H](C)CC[C@@H](OC(C)=O)C4(c5ncc(CCCC)o5)CC4)CC[C@@H]23)C[C@@H](O)C[C@@H]1O` [Compound 3b, (5Z,7E)-(1S,3R,24R)-24-(Acetoxy)-25-(5-butyloxazole-2-yl)-26,27-cyclo-9,10-secocholesta-5,7,10(19)-triene-1,3-diol], in the data set with HL 60 cells, the “DR (HL 60) (dose ratio test substance/reference substance for comparable semi-maximum actions)” value is on record as more than 170. The “DR (Ca) (dose ratio for hypercalcemia, test substance dose/reference substance dose for comparable actions)” value in data set [2] was more than 1000. The “activity in vivo (prevention of the formation of edemas)” value in data set [1] (result in words) was “therapeutically active in vivo”. Besides, at vitamin D receptor, the “KF (competition factor: concentration of test substance / reference substance at 50% competition)” value is more than 100 and the activity in vitro result is on record as “inactivity; also recorded: deficient activity”.

In the case of `C=C1/C(=C\C=C2/CCC[C@]3(C)[C@@H]([C@H](C)CC[C@@H](OC(=O)NC)C4(c5ncc(CCCC)o5)CC4)CC[C@@H]23)C[C@@H](O)C[C@@H]1O` [Compound 11b, (5Z,7E)-(1S,3R,24R)-25-(5-Butyloxazole-2-yl)-24-[[(methylamino)-carbonyl]oxy]-26,27-cyclo-9,10-secocholesta-5,7,10(19)-triene-1,3-diol], in data set [1] (result in words, relative to compounds that have free hydroxy groups in the side chain), the “therapeutic range (immunosuppressive threshold dose versus hypercalcemic threshold dose)” value is given as “clearly improved”.

As for `C=C1/C(=C\C=C2/CCC[C@]3(C)[C@@H]([C@H](C)/C=C/[C@@H](O)C4(c5ncc(CCCCC)o5)CC4)CC[C@@H]23)C[C@@H](O)C[C@@H]1O` [D, (5Z,7E,22E)-(1S,3R,24R)-25-(5-Pentyloxazole-2-yl)-26,27-cyclo-9,10-secocholesta-5,7,10(19),22-tetraene-1,3,24-triol], in the data set with HL 60 cells, the “DR (HL 60) (dose ratio test substance/reference substance for comparable semi-maximum actions)” value was more than 100. The “DR (Ca) (dose ratio for hypercalcemia, test substance dose/reference substance dose for comparable actions)” value in data set [2] is recorded as more than 300. On vitamin D receptor, the “KF (competition factor: concentration of test substance / reference substance at 50% competition)” value is reported as 4.

(Values after patent US20030166622A1, “Vitamin D derivatives with acyloxy groups in the side chains, process for their production, and the use for the production of pharmaceutical agents” (Schering AG, priority 2001, published 2003).)
